In patent publication US12251413B2, “Use of effective part extract of Monochasma savatieri in preparation of drug for treating inflammatory disease or tumor” (Harbin Kanglong Pharmaceutical Co., Ltd., priority 2022, dated 2025):

Tested on: TNF-α
Test: Inhibition of TNF-α secretion by LPS-induced RAW264.7 macrophages (ELISA)
Format: cell-based
Settings: Mus musculus, RAW264.7, LPS 1 μg/mL, 24 h (Table 1), read-out: TNF-α inhibition rate (%)
From the text: This test example simulated the inflammatory response at a cellular level in vitro, that is, the inflammatory response of mouse peritoneal macrophages (RAW264.7) was induced by lipopolysaccharide (LPS) to produce models of the inflammatory factors, and an inhibitory effect of the effective part extract of Monochasma savatieri on the TNF-α secreted by cells was detected by ELISA, to evaluate an anti-inflammatory effect thereof.
Test reagents were: RAW264.7 cells; a DMEM medium, a 1640 medium (Invitrogen), fetal bovine serum (Gibco); LPS(Sigma); an ELISA kit (ebioscience), and a CCK8 reagent (Taosu, Beijing).
Test samples were: the B2-13, B2-15, B2-16, and B2-16-15 prepared in Example 1; a positive drug: dexamethasone.
Test method: • 1. Cell culture: the RAW264.7 cells were cultured in the 1640+10% FBS at 37° C. with 5% CO2, and the cells were passaged when showing logarithmic growth. When reaching 80% confluency, the cells were plated in a 96-well plate (density: 2×10^4 cells/well) at 100 μL/well, and then incubated at 37° C. with 5% CO2 for 12 h to 18 h. • 2. […]
Evaluation index: an inhibition rate of the inflammatory factor TNF-α. OD values were read at 450 nm and 570 nm, a standard curve was plotted, a concentration of TNF-α in the medium was calculated, and the inhibition rate and inhibitory activity IC50 value of the samples on the TNF-α produced by the cells were calculated. […]

Work on `C[C@@H]1C[C@H]2[C@@H]3CCC4=CC(=O)C=C[C@]4(C)[C@@]3(F)[C@@H](O)C[C@]2(C)[C@@]1(O)C(=O)CO` [Dexamethasone, dexamethasone] yielded an inhibition at 10 µM of 58.7%.
